Values after ≈ are worked out from the molar mass of the structure shown. Read-outs that look alike come from different tables or passages of the source.
Assays:
[1] = Acid stability (pH 2), remaining antibacterial activity by disc method; format: physicochemical, Staphylococcus aureus FDA 209P
Procedure: (§1) The compound of the formula(I) was treated in the Clark-Lubs's buffer solution at pH 2 for the prescribed period of time.
(§2) Thereafter, the remaining antibacterial activity was determined by a disc method, using Staphylococcus aureus FDA 209P. Erthromycin A was also tested for the control.

[2] = system: Staphylococcus aureus FDA 209P; test: as above; format: physicochemical; details: pH 2, Clark-Lubs's buffer, 0 min
Procedure: as §1, §2

[3] = system: Staphylococcus aureus TPR-5; test: Antibacterial activity, agar plate dilution method (MIC); format: cell-based
Procedure: (§3) The compound of the formula(I) was tested for the antibacterial activity by the agar plate dilution method, using erythromycin A for the control.
*Strain resistant to sulfonamides and penicillins

[4] = system: Staphylococcus aureus TPR-7; test: as above; format: cell-based
Procedure: as §3
**Strain resistant to sulfonamides and tetracyclines

[5] = system: Staphylococcus epidermidis TPR-14; test: as above; format: cell-based
Procedure: as §3
***Strain resistant to sulfonamides, penicillins and chloramphenicol

[6] = system: Bacillus cereus ATCC 9634; test: as above; format: cell-based
Procedure: as §3

[7] = system: Bacillus subtilis ATCC 6633; test: as above; format: cell-based
Procedure: as §3

[8] = system: Micrococcus luteus ATCC 9341; test: as above; format: cell-based
Procedure: as §3

[9] = system: Staphylococcus aureus FDA 209P; test: as above; format: cell-based; details: FDA209P, read-out: MIC value
Procedure: as §3

[10] = system: Staphylococcus aureus Smith; test: as above; format: cell-based; details: read-out: MIC value
Procedure: as §3

[11] = system: Staphylococcus aureus Terashima; test: as above; format: cell-based; details: read-out: MIC value
Procedure: as §3

[12] = system: Staphylococcus epidermidis IID866; test: as above; format: cell-based
Procedure: as §3

[13] = system: Streptococcus faecalis ATCC 8043; test: as above; format: cell-based; details: Enterococcus faecalis
Procedure: as §3

[14] = system: Staphylococcus aureus Smith No. 4; test: In vivo activity, survival of infected mice after oral administration; parameters: species or system male ddY mice; details: 1 h after inoculation, 14 mice per group, 7 days
Procedure: Male ddY mice (body weight, 18-22 g; 14 mice per group) were inoculated with Staphylococcus aureus Smith No. 4. The compound of the formula(I) was administered orally one hour after the inoculation, and the number of mice surviving for seven days after the administration was noted.

[15] = cited from earlier work
[16] = TPR5, Staphylococcus aureus TPR-5, resistant to sulfonamides and penicillins, read-out: MIC value
[17] = TPR7, Staphylococcus aureus TPR-7, resistant to sulfonamides and tetracyclines, read-out: MIC value
[18] = TPR14, Staphylococcus epidermidis TPR-14, resistant to sulfonamides, penicillins and chloramphenicol, read-out: MIC value
[19] = ATCC9634, Bacillus cereus ATCC 9634, read-out: MIC value
[20] = ATCC6633, Bacillus subtilis ATCC 6633, read-out: MIC value
[21] = ATCC9341, Micrococcus luteus ATCC 9341, read-out: MIC value
[22] = Staphylococcus aureus Terashima
[23] = Staphylococcus epidermidis IID866, read-out: MIC value
[24] = ATCC8043, Streptococcus faecalis ATCC 8043, read-out: MIC value

Compound	remaining at 0.25 h ([1]; clark-lubs buffer, pH 2) [%]	remaining at 0.5 h ([1]; clark-lubs buffer, pH 2) [%]	remaining at 1 h ([1]; clark-lubs buffer, pH 2) [%]	remaining at 2 h ([1]; clark-lubs buffer, pH 2) [%]	Remaining activity [2] [%]	MIC [3, 16] [µg/mL]	MIC [4, 17] [µg/mL]	MIC [5, 18] [µg/mL]	MIC [6, 19] [µg/mL]	MIC [7, 20] [µg/mL]	MIC [8, 21] [µg/mL]	MIC ([9]; Staphylococcus aureus FDA 209P) [µg/mL]	MIC ([10]; Staphylococcus aureus Smith) [µg/mL]	MIC [11, 22] [µg/mL]	The number of surviving mice ([14]; 0.40 mg/kg oral) [mice]	The number of surviving mice ([14]; 1.56 mg/kg oral) [mice]	The number of surviving mice ([14]; 6.25 mg/kg oral) [mice]	The number of surviving mice ([14]; 25 mg/kg oral) [mice]	The number of surviving mice ([14]; 100 mg/kg oral) [mice]	The number of surviving mice ([14]; 400 mg/kg oral) [mice]	also measured
CC[C@H]1OC(=O)[C@H](C)[C@@H](O[C@H]2C[C@@](C)(OC)[C@@H](O)[C@H](C)O2)[C@H](C)[C@@H](O[C@@H]2O[C@H](C)C[C@H](N(C)C)[C@H]2O)[C@](C)(OC)C[C@@H](C)C(=O)[C@H](C)[C@@H](OC)[C@]1(C)O [TE-032, 6,11-di-O-methylerythromycin A]	100	95	85	65	100	0.4 (≈ 0.525 µM)	0.4 (≈ 0.525 µM)	0.4 (≈ 0.525 µM)	0.4 (≈ 0.525 µM)	0.05 (≈ 0.0656 µM)	≤ 0.05	0.1 (≈ 0.131 µM)	0.1 (≈ 0.131 µM)	0.4 (≈ 0.525 µM)	0	0	4	7	14	14	MIC [12, 23]: 0.4 µg/mL (≈ 0.525 µM); MIC [13, 24]: 0.05 µg/mL (≈ 0.0656 µM)
CC[C@H]1OC(=O)[C@H](C)[C@@H](O[C@H]2C[C@@](C)(OC)[C@@H](O)[C@H](C)O2)[C@H](C)[C@@H](O[C@@H]2O[C@H](C)C[C@H](N(C)C)[C@H]2O)[C@](C)(OC)C[C@@H](C)C(=O)[C@H](C)[C@@H](O)[C@]1(C)O [TE-031, 6-O-methylerythromycin A]	100	95	80	65	100	0.2 (≈ 0.267 µM)	0.2 (≈ 0.267 µM)	0.2 (≈ 0.267 µM)	0.2 (≈ 0.267 µM)	0.05 (≈ 0.0668 µM)	≤ 0.05	0.05 (≈ 0.0668 µM)	0.2 (≈ 0.267 µM)	0.2 (≈ 0.267 µM)	0	1	3	13	14	14	MIC [12, 23]: 0.2 µg/mL (≈ 0.267 µM); MIC [13, 24]: 0.05 µg/mL (≈ 0.0668 µM)
CC[C@H]1OC(=O)[C@H](C)[C@@H](O[C@H]2C[C@@](C)(OC)[C@@H](O)[C@H](C)O2)[C@H](C)[C@@H](O[C@@H]2O[C@H](C)C[C@H](N(C)C)[C@H]2O)[C@](C)(O)C[C@@H](C)C(=O)[C@H](C)[C@@H](O)[C@]1(C)O [Erythromycin A, erythromycin A, reference compound]					100										0	0	0	1	11	14	remaining at 0.25 h ([1]; pH 2, Clark-Lubs's buffer, 15 min, read-out: Remaining activity): 1.5%; remaining at 0.5 h ([1]; pH 2, Clark-Lubs's buffer, 30 min, read-out: Remaining activity): 0.5%; remaining at 1 h ([1]; pH 2, Clark-Lubs's buffer, 60 min, read-out: Remaining activity): 0%; remaining at 2 h ([1]; pH 2, Clark-Lubs's buffer, 120 min, read-out: Remaining activity): 0%; MIC ([3]; Staphylococcus aureus, TPR5, read-out: MIC value): 0.4 µg/mL (≈ 0.545 µM); MIC ([4]; Staphylococcus aureus, TPR7, read-out: MIC value): 0.4 µg/mL (≈ 0.545 µM); MIC ([5]; Staphylococcus epidermidis, TPR14, read-out: MIC value): 0.4 µg/mL (≈ 0.545 µM); MIC ([6]; Bacillus cereus, ATCC9634, read-out: MIC value): 0.4 µg/mL (≈ 0.545 µM); MIC ([7]; Bacillus subtilis, ATCC6633, read-out: MIC value): 0.1 µg/mL (≈ 0.136 µM); MIC ([8]; Micrococcus luteus, ATCC9341, read-out: MIC value): ≤ 0.05 µg/mL; MIC ([9]; Staphylococcus aureus): 0.2 µg/mL (≈ 0.273 µM); MIC ([10]; Staphylococcus aureus): 0.4 µg/mL (≈ 0.545 µM); MIC ([11]; Staphylococcus aureus): 0.4 µg/mL (≈ 0.545 µM); MIC ([12]; Staphylococcus epidermidis, IID866, read-out: MIC value): 0.4 µg/mL (≈ 0.545 µM); MIC ([13]; ATCC8043, read-out: MIC value): 0.05 µg/mL (≈ 0.0681 µM); antibacterial activity after oral administration (acid in stomach) [15]: loses rapidly the antibacterial activity; blood concentration ([15]; oral): remains at a low level

From patent US4331803A, “Novel erythromycin compounds” (Taisho Pharmaceutical Co., Ltd., priority 1980, dated 1982)
